Experiment [1] relates to PC-3. Briefly: Induction of cell death in LSD1 knockdown human PC-3 cells assessed as activation of procaspase-3 at 1.25 to 10 uM by Western blot analysis. Particulars: dose 1.25-10 µM. The class given is functional, cell-based. In general terms: A western blot detects proteins with antibodies after separation by electrophoresis.
In experiment [2] the test system is PC-3. Briefly: Antitumor activity against human PC-3 cells xenografted in athymic nude mouse assessed as tumor growth inhibition at 100 mg/kg, po qd measured upto 25 days by caliper method relative to control. The experiment is classed as functional. Particulars: PC-3, 600 h, time <= 25 day, read-out: TGI. In general terms: In xenograft studies the graft and the host belong to different species.

The target in experiment [3] is Histone deacetylase 5 (Homo sapiens, UniProt Q9UQL6). Briefly: Inhibition of human HDAC5 using Boc-Lys(trifluoroacetyl)-AMC as flurogenic substrate.
Histone deacetylase 5, sequence (Q9UQL6 whole entry): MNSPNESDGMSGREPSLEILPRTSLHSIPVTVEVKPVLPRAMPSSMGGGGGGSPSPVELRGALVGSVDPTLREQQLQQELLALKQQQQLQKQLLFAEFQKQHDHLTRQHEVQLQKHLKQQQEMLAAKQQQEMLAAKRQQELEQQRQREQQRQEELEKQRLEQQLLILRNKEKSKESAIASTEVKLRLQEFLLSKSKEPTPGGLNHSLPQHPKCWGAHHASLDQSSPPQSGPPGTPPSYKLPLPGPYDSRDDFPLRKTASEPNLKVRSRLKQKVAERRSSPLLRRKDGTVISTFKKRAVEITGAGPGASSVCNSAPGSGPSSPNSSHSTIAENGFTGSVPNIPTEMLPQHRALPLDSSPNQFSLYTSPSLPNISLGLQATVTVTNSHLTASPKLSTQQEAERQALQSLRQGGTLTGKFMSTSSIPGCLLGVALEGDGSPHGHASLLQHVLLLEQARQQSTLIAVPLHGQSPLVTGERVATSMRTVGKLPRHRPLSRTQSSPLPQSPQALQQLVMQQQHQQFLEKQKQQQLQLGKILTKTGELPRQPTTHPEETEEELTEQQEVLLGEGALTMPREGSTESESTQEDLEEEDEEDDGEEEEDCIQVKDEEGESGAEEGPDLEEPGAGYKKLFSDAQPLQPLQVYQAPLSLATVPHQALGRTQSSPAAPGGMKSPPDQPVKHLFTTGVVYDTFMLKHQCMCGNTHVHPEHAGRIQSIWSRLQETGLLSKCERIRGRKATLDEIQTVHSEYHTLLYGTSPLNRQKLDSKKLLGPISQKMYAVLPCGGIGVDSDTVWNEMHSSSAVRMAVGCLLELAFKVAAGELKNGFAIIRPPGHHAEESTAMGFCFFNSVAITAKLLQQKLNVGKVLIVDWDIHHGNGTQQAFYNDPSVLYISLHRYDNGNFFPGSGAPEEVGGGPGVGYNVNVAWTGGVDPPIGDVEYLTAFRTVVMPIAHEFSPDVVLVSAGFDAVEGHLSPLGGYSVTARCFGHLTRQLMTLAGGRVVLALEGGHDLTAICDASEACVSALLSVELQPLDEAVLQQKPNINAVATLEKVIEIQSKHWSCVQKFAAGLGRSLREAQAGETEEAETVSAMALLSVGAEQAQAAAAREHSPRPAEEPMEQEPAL
For experiment [4], the system named is DU-145. Briefly: Antitumor activity against human DU-145 cells xenografted in athymic nude mouse assessed as tumor growth inhibition at 50 mg/kg, po qd measured upto 60 days by caliper method relative to control. The experiment is classed as functional. The following applies: DU-145, 1440 h, time <= 60 day, read-out: TGI.
Experiment [5] deals with T1, Polyamine deacetylase HDAC10 (Homo sapiens, UniProt Q969S8).
T1 sequence (Q969S8 whole entry): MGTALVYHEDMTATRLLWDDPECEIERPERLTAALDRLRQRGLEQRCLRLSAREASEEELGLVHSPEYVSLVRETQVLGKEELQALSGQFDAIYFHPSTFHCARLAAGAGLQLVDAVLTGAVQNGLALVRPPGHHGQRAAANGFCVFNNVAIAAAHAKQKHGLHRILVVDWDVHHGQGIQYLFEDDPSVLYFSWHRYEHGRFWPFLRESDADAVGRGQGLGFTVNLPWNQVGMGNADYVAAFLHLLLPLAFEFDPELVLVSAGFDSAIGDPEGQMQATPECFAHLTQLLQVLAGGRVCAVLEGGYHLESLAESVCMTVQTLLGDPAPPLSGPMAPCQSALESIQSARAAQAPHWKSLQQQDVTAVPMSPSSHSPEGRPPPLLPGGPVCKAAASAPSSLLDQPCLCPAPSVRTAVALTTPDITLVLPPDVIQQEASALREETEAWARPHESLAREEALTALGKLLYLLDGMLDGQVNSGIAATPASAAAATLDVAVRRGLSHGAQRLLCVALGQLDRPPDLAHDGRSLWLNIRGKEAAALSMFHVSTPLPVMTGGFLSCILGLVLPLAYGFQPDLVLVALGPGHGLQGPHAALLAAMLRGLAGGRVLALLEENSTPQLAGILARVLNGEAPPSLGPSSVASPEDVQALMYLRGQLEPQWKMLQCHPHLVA
Briefly: Inhibition of human HDAC10 using Ac-Spermidine-AMC as flurogenic substrate.

Molecules are shown by their SMILES. The source made the active and inactive calls. The calls are words filed in the database; no cut-off is given here.

Among the data in ChEMBL document CHEMBL5096208, “Installation of Pargyline, a LSD1 Inhibitor, in the HDAC Inhibitory Template Culminated in the Identification of a Tractable Antiprostate Cancer Agent” (J Med Chem, 2021) are Activity, inhibition in vivo and IC50 values, retold here.

By IC50 is commonly meant the concentration needed to halve the response being measured. A lower IC50 goes with inhibition by little substance. Turning to `C#CCN(C)Cc1cccc(NC(=O)CCCCCCC(=O)NO)c1`, the result in experiment [1] was Active. Further, in experiment [2], the inhibition in vivo at 100 mg/kg is 53.1%. Besides, the IC50 was 13.4 µM in experiment [3] and 0.374 µM in experiment [5]. Moreover, the inhibition in vivo at 50 mg/kg in experiment [4] worked out at 65.8%.
